Experimental findings from patent US20230085307A1, “PYRIDAZINONE COMPOUND AND HERBICIDE” (NISSAN CHEMICAL CORPORATION, priority 2019, published 2023) are described below.

SMILES strings stand for the structures.

In one assay the test system is late watergrass. Briefly: Test Example 2: herbicidal activity, application during weed generation under submerged conditions (Table 17, symbol A). Format: in vivo, late watergrass (Echinochloa oryzicola). The note with it: AAH 320 g/ha; application during weed generation, submerged conditions. In outline:
(§1)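 Alluvial soil in Wagner pots was flooded to 4 cm depth and sown with the three weeds together; pots were kept in a greenhouse at 25° C. to 30° C. At the one to two leaf stage, an emulsion formulation diluted in water to a set rate went onto the water surface; scored three weeks later.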
In the case of `CCCC(=O)Oc1c(C)nn(C)c(=O)c1-c1c(-c2ccc(OCC)cc2)sc2ccc(F)cc12` [2-031], the “herbicidal effect rating, A: late watergrass” value is 4 (Herbicidal rate of 70% or more and less than 90%).
Take `CCCC(=O)Oc1c(C)nn(C)c(=O)c1-c1c(-c2ccc(CC)cc2)sc2ccc(F)cc12` [2-016]: the “herbicidal effect rating, A: late watergrass” value was 3 (Herbicidal rate of 40% or more and less than 70%).
For the compound `CCOc1ccc(-c2sc3ccc(F)cc3c2-c2c(O)c(C)nn(C)c2=O)cc1` [2-030], the “herbicidal effect rating, A: late watergrass” value is 0 (Herbicidal rate of 5% or less (almost no effect)).

Another assay concerns Japanese bulrush. Briefly: Test Example 2: herbicidal activity, application during weed generation under submerged conditions (Table 17, symbol B). Format: in vivo, Japanese bulrush (Schoenoplectus juncoides). The note with it: AAH 320 g/ha; application during weed generation, submerged conditions. In outline: as §1
Take `CCCC(=O)Oc1c(C)nn(C)c(=O)c1-c1c(-c2ccc(OCC)cc2)sc2ccc(F)cc12` [2-031]: the “herbicidal effect rating, B: Japanese bulrush” value is 3 (Herbicidal rate of 40% or more and less than 70%).
Same read-out and setting: the figure for `CCCC(=O)Oc1c(C)nn(C)c(=O)c1-c1c(-c2ccc(CC)cc2)sc2ccc(F)cc12` [2-016] is 4 (Herbicidal rate of 70% or more and less than 90%).
Still for that read-out and setting: the figure for `CCOc1ccc(-c2sc3ccc(F)cc3c2-c2c(O)c(C)nn(C)c2=O)cc1` [2-030] is 2 (Herbicidal rate of 20% or more and less than 40%).

The test system of another assay is oval-leafed pondweed. Description: Test Example 2: herbicidal activity, application during weed generation under submerged conditions (Table 17, symbol C). Format: in vivo, oval-leafed pondweed (Monochoria vaginalis). The note with it: AAH 320 g/ha; application during weed generation, submerged conditions. An outline of the steps:
as §1
As for `CCCC(=O)Oc1c(C)nn(C)c(=O)c1-c1c(-c2ccc(OCC)cc2)sc2ccc(F)cc12` [2-031], the “herbicidal effect rating, C: oval-leafed pondweed” value is 3 (Herbicidal rate of 40% or more and less than 70%).
Still for that read-out and setting: the result for `CCCC(=O)Oc1c(C)nn(C)c(=O)c1-c1c(-c2ccc(CC)cc2)sc2ccc(F)cc12` [2-016] reads 4 (Herbicidal rate of 70% or more and less than 90%); that for `CCOc1ccc(-c2sc3ccc(F)cc3c2-c2c(O)c(C)nn(C)c2=O)cc1` [2-030], 0 (Herbicidal rate of 5% or less (almost no effect)).

A further assay deals with southern crabgrass. Description: Test Example 4: herbicidal effect by soil treatment (Table 19, symbol F). Format: in vivo, southern crabgrass (Digitaria ciliaris). The note with it: 320 g/ha. An outline of the steps: (§2)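 Step 1: sow seeds in sterilized diluvial soil, cover ~1.5 cm. Step 2: spray diluted emulsion onto soil surface at predetermined rate. Step 3: greenhouse, 25–30° C, three weeks. Step 4: grade effect on each plant by earlier criteria.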
As for `CCCC(=O)Oc1c(C)nn(C)c(=O)c1-c1c(-c2ccc(OCC)cc2)sc2ccc(F)cc12` [2-031], the “herbicidal effect rating, F: southern crabgrass” value was 1 (Herbicidal rate of 5% or more and less than 20%).
Regarding `CCCC(=O)Oc1c(C)nn(C)c(=O)c1-c1c(-c2ccc(CC)cc2)sc2ccc(F)cc12` [2-016], the “herbicidal effect rating, F: southern crabgrass” value is 0 (Herbicidal rate of 5% or less (almost no effect)).
On the same count and under the same terms, the result for `CCOc1ccc(-c2sc3ccc(F)cc3c2-c2c(O)c(C)nn(C)c2=O)cc1` [2-030] reads 0 (Herbicidal rate of 5% or less (almost no effect)).

The next assay has as its system green foxtail. Briefly: Test Example 4: herbicidal effect by soil treatment (Table 19, symbol G). The note with it: 320 g/ha. The assay is classed as in vivo, green foxtail (Setaria viridis). An outline of the steps: as §2
With `CCCC(=O)Oc1c(C)nn(C)c(=O)c1-c1c(-c2ccc(OCC)cc2)sc2ccc(F)cc12` [2-031], the “herbicidal effect rating, G: green foxtail” value (“herbicidal effect rating, G” for short) was 2 (Herbicidal rate of 20% or more and less than 40%).
With `CCCC(=O)Oc1c(C)nn(C)c(=O)c1-c1c(-c2ccc(CC)cc2)sc2ccc(F)cc12` [2-016], the “herbicidal effect rating, G” value is reported as 0 (Herbicidal rate of 5% or less (almost no effect)).
For the compound `CCOc1ccc(-c2sc3ccc(F)cc3c2-c2c(O)c(C)nn(C)c2=O)cc1` [2-030], the “herbicidal effect rating, G” value is on record as 0 (Herbicidal rate of 5% or less (almost no effect)).

For another assay, the system named is barnyard grass. Briefly: Test Example 4: herbicidal effect by soil treatment (Table 19, symbol H). The assay is classed as in vivo, barnyard grass (Echinochloa crus-galli). The note with it: 320 g/ha. An outline of the steps:
as §2
For `CCCC(=O)Oc1c(C)nn(C)c(=O)c1-c1c(-c2ccc(OCC)cc2)sc2ccc(F)cc12` [2-031], the “herbicidal effect rating, H: barnyard grass” value was 3 (Herbicidal rate of 40% or more and less than 70%).
Still for that read-out and setting: the result for `CCCC(=O)Oc1c(C)nn(C)c(=O)c1-c1c(-c2ccc(CC)cc2)sc2ccc(F)cc12` [2-016] reads 1 (Herbicidal rate of 5% or more and less than 20%); that for `CCOc1ccc(-c2sc3ccc(F)cc3c2-c2c(O)c(C)nn(C)c2=O)cc1` [2-030], 0 (Herbicidal rate of 5% or less (almost no effect)).

A further assay deals with wild oat. Description: Test Example 4: herbicidal effect by soil treatment (Table 19, symbol I). The note with it: 320 g/ha. The assay is classed as in vivo, wild oat (Avena fatua). An outline of the steps:
as §2
`CCCC(=O)Oc1c(C)nn(C)c(=O)c1-c1c(-c2ccc(OCC)cc2)sc2ccc(F)cc12` [2-031]: the “herbicidal effect rating, I: wild oat” value is listed as 0 (Herbicidal rate of 5% or less (almost no effect)).
In the case of `CCCC(=O)Oc1c(C)nn(C)c(=O)c1-c1c(-c2ccc(CC)cc2)sc2ccc(F)cc12` [2-016], the “herbicidal effect rating, I: wild oat” value is 0 (Herbicidal rate of 5% or less (almost no effect)).
On the same count and under the same terms, the figure for `CCOc1ccc(-c2sc3ccc(F)cc3c2-c2c(O)c(C)nn(C)c2=O)cc1` [2-030] is 0 (Herbicidal rate of 5% or less (almost no effect)).

The test system of a further assay is blackgrass. Briefly: Test Example 4: herbicidal effect by soil treatment (Table 19, symbol J). Format: in vivo, blackgrass (Alopecurus myosuroides). The note with it: 320 g/ha. In outline: as §2
Consider `CCCC(=O)Oc1c(C)nn(C)c(=O)c1-c1c(-c2ccc(OCC)cc2)sc2ccc(F)cc12` [2-031], for which the “herbicidal effect rating, J: blackgrass” value is 0 (Herbicidal rate of 5% or less (almost no effect)).
Still for that read-out and setting: the figure for `CCCC(=O)Oc1c(C)nn(C)c(=O)c1-c1c(-c2ccc(CC)cc2)sc2ccc(F)cc12` [2-016] is 2 (Herbicidal rate of 20% or more and less than 40%); for `CCOc1ccc(-c2sc3ccc(F)cc3c2-c2c(O)c(C)nn(C)c2=O)cc1` [2-030] it is 0 (Herbicidal rate of 5% or less (almost no effect)).

In another assay the test system is velvetleaf. Description: Test Example 4: herbicidal effect by soil treatment (Table 19, symbol M). Format: in vivo, velvetleaf (Abutilon theophrasti). The note with it: 320 g/ha. In outline:
as §2
In the case of `CCCC(=O)Oc1c(C)nn(C)c(=O)c1-c1c(-c2ccc(OCC)cc2)sc2ccc(F)cc12` [2-031], the “herbicidal effect rating, M: velvetleaf” value was 3 (Herbicidal rate of 40% or more and less than 70%).
For the compound `CCCC(=O)Oc1c(C)nn(C)c(=O)c1-c1c(-c2ccc(CC)cc2)sc2ccc(F)cc12` [2-016], the “herbicidal effect rating, M: velvetleaf” value is 3 (Herbicidal rate of 40% or more and less than 70%).
Same read-out and setting: the result for `CCOc1ccc(-c2sc3ccc(F)cc3c2-c2c(O)c(C)nn(C)c2=O)cc1` [2-030] reads 3 (Herbicidal rate of 40% or more and less than 70%).

A further assay concerns redroot pigweed. Description: Test Example 4: herbicidal effect by soil treatment (Table 19, symbol N). The assay is classed as in vivo, redroot pigweed (Amaranthus retroflexus). The note with it: 320 g/ha. An outline of the steps: as §2
Consider `CCCC(=O)Oc1c(C)nn(C)c(=O)c1-c1c(-c2ccc(OCC)cc2)sc2ccc(F)cc12` [2-031], for which the “herbicidal effect rating, N: redroot pigweed” value was 4 (Herbicidal rate of 70% or more and less than 90%).
On the same count and under the same terms, the result for `CCCC(=O)Oc1c(C)nn(C)c(=O)c1-c1c(-c2ccc(CC)cc2)sc2ccc(F)cc12` [2-016] reads 5 (Herbicidal rate of 90% or more (almost completely withered)); that for `CCOc1ccc(-c2sc3ccc(F)cc3c2-c2c(O)c(C)nn(C)c2=O)cc1` [2-030], 4 (Herbicidal rate of 70% or more and less than 90%).

Another assay has as its system persian speedwell. Briefly: Test Example 4: herbicidal effect by soil treatment (Table 19, symbol R). The note with it: 320 g/ha. Format: in vivo, Persian speedwell (Veronica persica). An outline of the steps: as §2
As to `CCCC(=O)Oc1c(C)nn(C)c(=O)c1-c1c(-c2ccc(OCC)cc2)sc2ccc(F)cc12` [2-031], the “herbicidal effect rating, R: persian speedwell” value is 4 (Herbicidal rate of 70% or more and less than 90%).
Take `CCCC(=O)Oc1c(C)nn(C)c(=O)c1-c1c(-c2ccc(CC)cc2)sc2ccc(F)cc12` [2-016]: the “herbicidal effect rating, R: persian speedwell” value is 4 (Herbicidal rate of 70% or more and less than 90%).
On the same count and under the same terms, the figure for `CCOc1ccc(-c2sc3ccc(F)cc3c2-c2c(O)c(C)nn(C)c2=O)cc1` [2-030] is 5 (Herbicidal rate of 90% or more (almost completely withered)).

The test system of another assay is barnyard grass. Briefly: Test Example 5: herbicidal effect by foliage application, plastic box (Table 20, symbol H). The assay is classed as in vivo, barnyard grass (Echinochloa crus-galli). The note with it: foliage application, 320 g/ha, 3 weeks after application. An outline of the steps:
(§3)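 Foliar spray test: emulsion formulation diluted in water to a set application rate, sprayed onto 14-day-old plants raised in diluvial soil at 25° C to 30° C under glass. Both herbicidal effect and crop effect rated visually three weeks later.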
In the case of `CCCC(=O)Oc1c(C)nn(C)c(=O)c1-c1c(-c2ccc(OCC)cc2)sc2ccc(F)cc12` [2-031], the “effect on barnyard grass (H)” value was 4 (Herbicidal rate of 70% or more and less than 90%).
On the same count and under the same terms, the figure for `CCCC(=O)Oc1c(C)nn(C)c(=O)c1-c1c(-c2ccc(CC)cc2)sc2ccc(F)cc12` [2-016] is 3 (Herbicidal rate of 40% or more and less than 70%); for `CCOc1ccc(-c2sc3ccc(F)cc3c2-c2c(O)c(C)nn(C)c2=O)cc1` [2-030] it is 5 (Herbicidal rate of 90% or more (almost completely withered)).

The next assay relates to windgrass. Briefly: Test Example 5: herbicidal effect by foliage application, plastic box (Table 20, symbol L). The note with it: foliage application, 320 g/ha, 3 weeks after application. Format: in vivo, windgrass (Apera spica-venti). In outline:
as §3
For `CCCC(=O)Oc1c(C)nn(C)c(=O)c1-c1c(-c2ccc(OCC)cc2)sc2ccc(F)cc12` [2-031], the “effect on windgrass (L)” value was 0 (Herbicidal rate of 5% or less (almost no effect)).
On the same count and under the same terms, the figure for `CCCC(=O)Oc1c(C)nn(C)c(=O)c1-c1c(-c2ccc(CC)cc2)sc2ccc(F)cc12` [2-016] is 5 (Herbicidal rate of 90% or more (almost completely withered)).
Same read-out and setting: the result for `CCOc1ccc(-c2sc3ccc(F)cc3c2-c2c(O)c(C)nn(C)c2=O)cc1` [2-030] reads 3 (Herbicidal rate of 40% or more and less than 70%).

In another assay the test system is persian speedwell. Description: Test Example 5: herbicidal effect by foliage application, plastic box (Table 20, symbol R). Format: in vivo, Persian speedwell (Veronica persica). The note with it: foliage application, 320 g/ha, 3 weeks after application. In outline:
as §3
In the case of `CCCC(=O)Oc1c(C)nn(C)c(=O)c1-c1c(-c2ccc(OCC)cc2)sc2ccc(F)cc12` [2-031], the “effect on persian speedwell (R)” value is recorded as 5 (Herbicidal rate of 90% or more (almost completely withered)).
Still for that read-out and setting: the figure for `CCCC(=O)Oc1c(C)nn(C)c(=O)c1-c1c(-c2ccc(CC)cc2)sc2ccc(F)cc12` [2-016] is 5 (Herbicidal rate of 90% or more (almost completely withered)).
For the compound `CCOc1ccc(-c2sc3ccc(F)cc3c2-c2c(O)c(C)nn(C)c2=O)cc1` [2-030], the “effect on persian speedwell (R)” value is on record as 5 (Herbicidal rate of 90% or more (almost completely withered)).
